Values quoted from earlier work, collected in patent US20190038640A1, “COMPOSITION, FORMULATIONS AND METHODS OF MAKING AND USING BOTANICALS AND NATURAL COMPOUNDS FOR THE PROMOTION OF HEALTHY BRAIN AGING” (THE BRAIN HEALTH PROJECT, LLC, priority 2013, published 2019).

Tests used:
[1] = 0.1-0.2 mg HupA twice daily, active group
[2] = system: endometrium; conditions: genistein aglycone 54 mg
[3] = system: alkaline phosphatase activity in the endometrium
[4] = in vivo
[5] = system: beta amyloid; conditions: AD transgenic mice

C/C=C1\[C@H]2C=C(C)C[C@]1(N)c1ccc(=O)[nH]c1C2 [Huperzine A]
terminal half life (0.2 mg pure Huperzine A orally, healthy subjects): approximately 6 hours
optimal plasma level (human, in vivo): 0.6 ng/mL
proportion of patients with a four point improvement on the ADAS-Cog [1]: 56%

O=c1c(-c2ccc(O)cc2)coc2cc(O)cc(O)c12 [Genistein, genistein]
reduction of endometrial hyperplasia without atypia compared with norethisterone acetate [2]: as successful as

O=c1c(-c2ccc(O)cc2)coc2cc(O)ccc12 [daidzein]
potency of inducing alkaline phosphatase activity relative to estradiol [3]: one millionth

Cn1c(=O)c2c(ncn2C)n(C)c1=O [caffeine]
half life [4]: 4 to 6 h
time to peak blood levels [4]: within one hour
reduction of beta amyloid deposition in the entorhinal cortex [5]: 46%
reduction of beta amyloid deposition in the hippocampus [5]: 40%
